Results from patent US11655232B2 (Celgene Corporation, priority 2003, dated 2023).
Converted amounts (≈) assume the structure as drawn. Read-outs that look alike come from different tables or passages of the source.

Legend:
[1] = pH 1.8
Protocol: (§1) A solid sample of 400-450 mg was stirred in 50 mL of dissolution medium (HCl buffer, pH 1.8, with 1% sodium lauryl sulfate) using a mechanical stir rod. Aliquots were filtered using 0.2-μm nylon syringe filters and immediately diluted 1 mL→50 mL, then 5 mL→25 mL with dissolution medium in Class A glassware, a final dilution factor of 250.
(§2) Dissolution and solubility samples solutions were analyzed by a Beckman DU 640 single-beam spectrophotometer. A 1.000-cm quartz cuvette and an analysis wavelength of 228.40 nm were utilized. The detector was zeroed with a cuvette filled with dissolution medium.
(§3) XRPD analyses were carried out on a Shimadzu XRD-6000 X-ray powder diffractometer using Cu Kα radiation. The instrument is equipped with a fine focus X-ray tube. The tube power and amperage were set at 40 kV and 40 mA, respectively. The divergence and scattering slits were set at 1° and the receiving slit was set at 0.15 mm. Diffracted radiation was detected by a NaI scintillation detector. A theta-two theta continuous scan at 3°/min (0.4 sec/0.02° step) from 2.5 to 40°2θ was used. A silicon standard was analyzed each day to check the instrument alignment. Samples were packed in an aluminum holder with silicon insert.

[2] = physchem; conditions: 25 °C, pH 1.8, aqueous with cosolvent or surfactant or cyclodextrin, thermodynamic from solid
Protocol: as §1, §2, §3

[3] = Temperature/relative humidity stress storage; format: physicochemical
[4] = Moisture sorption/desorption; format: physicochemical
Protocol: Moisture sorption/desorption data were collected on a VTI SGA-100 moisture balance system. For sorption isotherms, a sorption range of 5 to 95% relative humidity (RH) and a desorption range of 95 to 5% RH in 10% RH increments was used for analysis. The sample was not dried prior to analysis. Equilibrium criteria used for analysis were less than 0.0100 weight percent change in 5 minutes with a maximum equilibration time of 3 hours if the weight criterion was not met. Data were not corrected for the initial moisture content of the samples.

[5] = Intrinsic dissolution (Woods apparatus); format: physicochemical
Protocol: Dissolution experiments were carried out in a VanKel VK6010-8 dissolution apparatus equipped with a VK650A heater/circulator. An intrinsic dissolution apparatus (Woods apparatus) was used. Samples were compressed at 1.5 metric tons (1000 psi) for 1 min using the Woods apparatus in a hydraulic press, giving a sample surface of 0.50 cm^2. […] The medium was degassed by vacuum filtration through a 0.22-μm nylon filter disk and maintained at 37° C. The apparatus was rotated at 50 rpm for each experiment. Aliquots were filtered immediately using 0.2-μm nylon syringe filters. In some cases, the undissolved solids were recovered and analyzed by X-ray powder diffraction (XRPD).
Diffracted radiation was detected by a NaI scintillation detector.

[6] = Desolvation by heating; format: physicochemical; conditions: about 125° C. for about five minutes

- Solubility [1]: 4700 µg/mL (≈ 18.1 mM)
- Solubility [2]: 4700 µg/mL (≈ 18.1 mM)
- form after stress storage ([3]; seven days at room temperature/0% RH): can convert to a new form, Form H
- weight lost from start to finish ([4]; at 5% relative humidity after drying from 95% back down to 5%): about 0.0528 % by weight
- Cumulative Amount Dissolved per Unit Area ([5]; Experiment #1, 5 min): 2.70 mg/cm2
- Cumulative Amount Dissolved per Unit Area ([5]; Experiment #1, 10 min): 4.13 mg/cm2
- Cumulative Amount Dissolved per Unit Area ([5]; Experiment #1, 20 min): 6.96 mg/cm2
- Cumulative Amount Dissolved per Unit Area ([5]; Experiment #1, 30 min): 9.60 mg/cm2
- Cumulative Amount Dissolved per Unit Area ([5]; Experiment #1, 45 min): 12.57 mg/cm2
- Cumulative Amount Dissolved per Unit Area ([5]; Experiment #1, 60 min): 15.16 mg/cm2
- Cumulative Amount Dissolved per Unit Area ([5]; Experiment #1, 90 min): 20.82 mg/cm2
- Cumulative Amount Dissolved per Unit Area ([5]; Experiment #2, 5 min): 3.06 mg/cm2
- Cumulative Amount Dissolved per Unit Area ([5]; Experiment #2, 10 min): 4.31 mg/cm2
- Cumulative Amount Dissolved per Unit Area ([5]; Experiment #2, 20 min): 11.40 mg/cm2
- Cumulative Amount Dissolved per Unit Area ([5]; Experiment #2, 30 min): 11.93 mg/cm2
- Cumulative Amount Dissolved per Unit Area ([5]; Experiment #2, 45 min): 14.72 mg/cm2
- Cumulative Amount Dissolved per Unit Area ([5]; Experiment #2, 60 min): 18.52 mg/cm2
- Cumulative Amount Dissolved per Unit Area ([5]; Experiment #2, 90 min): 26.24 mg/cm2
- Cumulative Amount Dissolved per Unit Area ([5]; Experiment #2, 120 min): 33.56 mg/cm2
- Cumulative Amount Dissolved per Unit Area ([5]; Experiment #2, 150 min): 40.82 mg/cm2
- dissolution rates (estimated) ([5]; HCl buffer pH 1.8, 1% sodium lauryl sulfate): 0.23 mg/cm²/min
- Final Form of undissolved solids after intrinsic dissolution (XRPD) ([5]; HCl buffer pH 1.8, 1% sodium lauryl sulfate, 37° C.): did not change
- Average Intrinsic Dissolution Rate ([5]; average of experiments #1 and #2): 0.23 mg per cm^2 per minute
- Intrinsic Dissolution #1 (rate) ([5]; experiment #1, 900 mL HCl buffer pH 1.8, 1% sodium lauryl sulfate, 37° C., 50 rpm): 0.21 mg per cm^2 per minute
- Intrinsic Dissolution #2 (rate) ([5]; experiment #2, HCl buffer pH 1.8, 1% sodium lauryl sulfate, 37° C., 50 rpm): 0.25 mg per cm^2 per minute
- form after heating (desolvation) [6]: can convert to Form B
Compound: Nc1cccc2c1CN(C1CCC(=O)NC1=O)C2=O (stereo not shown) [Form E, 3-(4-amino-1-oxo-1,3 dihydro-isoindol-2-yl)-piperidine-2,6-dione]
- form after stress storage ([3]; about 85 days, room temperature/0% RH and 40° C./93% RH): typically does not convert to a different form
- weight gain on moisture sorption ([4]; from 5 to 95% relative humidity): does not exhibit a significant weight change
